From patent publication EP0819124B1, “AZOLE COMPOUNDS WITH ANTIMYCOTIC ACTIVITY FOR HUMAN AND VETERINARY USE” (ZAMBON GROUP S.p.A., priority 1995, dated 1996)
≈ marks a conversion by molar mass, not a printed value.

What was measured:
C. albicans 1040 = experiment: In vitro antimycotic activity, macromethod of scalar broth dilutions (YNB); assay type: cell-based, Candida albicans; conditions: Candida albicans, 1040, 48 h
Protocol: (§1) The determination of the activity inhibiting the growth of mycetes was evaluated by the macromethod of scalar brothdilutions in geometrical progression (M.R. McGinnis and M.G. Rinaldi, "Antifungal drugs: mechanisms of action, drug resistance, susceptibility testing and assay of activity in biological fluids", in Antibiotic in Laboratory Medicine, Ed. V. Lorian, Baltimora 1991).
(§2) As culture media Yeast Nitrogen Base broth (YNB) and Sabouraud Dextrose broth (SDB) were used for yeasts and moulds, respectively.
(§3) The results obtained in SDB (after incubation at 28°C for 7 days) were expressed as minimum inhibiting concentrations (MIC) the growth of mycetes, while those obtained in YNB (after incubation at 35°C for 48 hours) were expressed as concentrations able to inhibit at 50% (IC50) the growth of the yeast.
(§4) As reference compounds Fluconazole, Itraconazole and Genaconazole were used.

C. neoformans = experiment: as above; assay type: cell-based; conditions: Cryptococcus neoformans, 48 h
Protocol: as §1, §2, §3, §4

T.mentagrophytes = experiment: In vitro antimycotic activity, macromethod of scalar broth dilutions (SDB); assay type: cell-based, Trychophyton mentagrophytes; conditions: Trichophyton mentagrophytes, 168 h
Protocol: as §1, §2, §3, §4

A. fumigatus = experiment: as above; assay type: cell-based; conditions: Aspergillus fumigatus, 168 h
Protocol: as §1, §2, §3, §4

C. krusei (2) = experiment: In vitro antimycotic activity, strain panel (Table 2); assay type: cell-based, Candida krusei; conditions: Pichia kudriavzevii
Protocol: as §1, §2, §3, §4
(§5) Note to the table: MIC expressed as µg/ml Within brackets the number of tested strains Table 3

C. glabrata (2) = experiment: as above; assay type: cell-based, Candida glabrata; conditions: Nakaseomyces glabratus
Protocol: as §1, §2, §3, §4, §5

B. capitatus (1) = experiment: as above; assay type: cell-based; conditions: Magnusiomyces capitatus
Protocol: as §1, §2, §3, §4, §5

C. albicans (7) = experiment: as above; assay type: cell-based; conditions: Candida albicans
Protocol: as §1, §2, §3, §4, §5

C. neoformans (4) = experiment: as above; assay type: cell-based; conditions: Cryptococcus neoformans
Protocol: as §1, §2, §3, §4, §5

[1] = tested on: C. spp * (5) (C. parapsilosis, lusitaniae, kefyr); experiment: as above; assay type: cell-based; conditions: Lodderomyces parapsilosis
Protocol: as §1, §2, §3, §4, §5

C. tropicalis (2) = experiment: as above; assay type: cell-based; conditions: Candida tropicalis
Protocol: as §1, §2, §3, §4, §5

Trichosporon sp. (1) = experiment: as above; assay type: cell-based; conditions: Trichosporon
Protocol: as §1, §2, §3, §4, §5

Fusarium sp = experiment: In vitro antimycotic activity against recently isolated Fusarium strains (Tables 2 and 3); assay type: cell-based; conditions: for In vitro antimycotic activity: quantity and unit not given in Table 3
Protocol: as §1, §2, §3, §4, §5

A. niger = experiment: In vitro antimycotic activity against recently isolated Aspergillus niger (Table 3); assay type: cell-based; conditions: A. niger strain 94-6222; quantity and unit not given in Table 3
Protocol: as §1, §2, §3, §4

Candida albicans 1040 = experiment: In vivo antimycotic activity in mice experimentally infected by C. albicans, oral route; design: species or system Charles River white mice (CD1 strain)
Protocol: Charles River white mice (CD1 strain) weighing from 23 to 25 g, normo-feeded with standard diet and water ad libitum were used.
A suspension (0.2 ml containing 2.5x10^7 cells/ml) of Candida albicans 1040 in physiologic solution was injected to each animal by venous route. Immediately after the infection and after 4, 24 and 48 hours, the animals received by oral route (in arabic gum at 2%) doses increasing in a geometrical progression of the compound to be tested. The infected group was used as control.
The observation of the mortality of the mice was prolonged up to 14 days. From the number of survived animals for each concentration the average protective dose (DP50) was calculated by probits analysis (L.Lison - "Statistica applicata alla biologia sperimentale. La programmazione dell'esperimento e l'analisi dei risultati" - Casa Editrice Ambrosiana, 1961).
Compounds R1 and R2 were used as comparative compounds.
Fluconazole and Itraconazole were used as reference compounds.

`CC(COC(F)(F)C(F)F)C(O)(Cn1cncn1)c1ccc(Cl)cc1Cl` (racemic) [Compound 1, (±)-1-(1H-1,2,4-triazolyl)-2-hydroxy-2-(2,4-dichlorophenyl)-3-methyl-4-(1,1,2,2-tetrafluoroethoxy)butane] gave an IC50 (C. albicans 1040) of 0.0156 µg/mL (≈ 0.0375 µM), an IC50 (C. neoformans) of 0.004 µg/mL (≈ 0.00961 µM) and an MIC (T.mentagrophytes) of 0.125 µg/mL (≈ 0.3 µM). It also gave an MIC (A. fumigatus) of 8 µg/mL (≈ 19.2 µM), an MIC (C. krusei (2)) of 0.03 to 0.12 µg/mL (≈ 0.0721 to 0.288 µM) and an MIC (C. glabrata (2)) of 0.12 µg/mL (≈ 0.288 µM). The MIC (B. capitatus (1)) was at most 0.03 µg/mL, the MIC50 (C. albicans (7)) was at most 0.03 µg/mL and the MIC90 (C. albicans (7)) was 0.06 µg/mL (≈ 0.144 µM). The MIC50 (C. neoformans (4)) was at most 0.03 µg/mL, the MIC90 (C. neoformans (4)) was at most 0.03 µg/mL and the MIC50 [1] was at most 0.03 µg/mL. For the same molecule, the MIC90 [1] was at most 0.03 µg/mL, the MIC (C. tropicalis (2)) was 0.12 µg/mL (≈ 0.288 µM) and the MIC (Trichosporon sp. (1)) was at most 0.03 µg/mL. For the same molecule, the MIC (Fusarium sp; Fusarium) was 0.25 µg/mL (≈ 0.601 µM), the “In vitro antimycotic activity” value (Fusarium sp; Fusarium sp strain 81-256) was 0.25 and the “In vitro antimycotic activity” value (Fusarium sp; Fusarium sp strain 86-3369) was 0.5. The “In vitro antimycotic activity” value (Fusarium sp; Fusarium sp strain 88-2116) was 0.5, the “In vitro antimycotic activity” value (Fusarium sp; Fusarium sp strain 946301) was 0.5 and the “In vitro antimycotic activity” value (A. niger) was at most 0.03. The “% percentage of survival after day 3” value (Candida albicans 1040; mice infected by C. albicans, dose 25 mg/kg/os, day 3) was 100%, the “% percentage of survival after day 6” value (Candida albicans 1040; mice infected by C. albicans, dose 25 mg/kg/os, day 6) was 100% and the “PD50 at 8th day” value (Candida albicans 1040; oral route, 8 days from the infection, probits analysis) was 0.120 mg/kg/os. The “PD50 at 14th day” value (Candida albicans 1040; oral route, 14 days from the infection, probits analysis) was 0.74 mg/kg/os.
